# From US20250195530A1, “POLQ INHIBITORS” (ASTRAZENECA AB, priority 2022, published 2025)
# Like-named read-outs stand apart in the source and are kept apart here.
# Tested on: DLD-1 BRCA2−/− cells
# Test: Homologous recombination synthetic lethal inhibition of proliferation, DLD-1 BRCA2-/- (Cell Titre Glo 3D)
# Type: cell-based
# Details: Homo sapiens
# From the text: This assay identifies anti-proliferative effects of POLQ compounds in the homologous recombination deficient colorectal cell line DLD-1 BRCA2−/− over 8-9 population doublings (7 days for DLD-1 and 12 days for DLD-1 BRCA2−/−). DLD1 BRCA2 wt are used as a control to detect cell toxic effects not specific to homologous recombination deficiency.
# DLD-1 BRCA2−/− and DLD-1 cells were kept in continuous culture in Assay Medium (RPMI 1640 phenol red free (Sigma R7509) containing 1% GlutaMAX (Gibco 35050) and 10% Foetal Bovine Serum (Gibco 10270-106)). On the day of the assay cells in culture of ˜80-90% confluent were used. Cell monolayers were washed with 10 mL PBS, then removed and added 2 mL TrypLE Express (Gibco 12604). The cells with TrypLE Express were incubated for 5 minutes in cell culture incubator and then the detached cells resuspend in 15 mL Assay Medium. Cells were counted using a ViCell and the cell images were monitored for clumps of cells, ideally they should be single or <3 cell clusters. The cells were diluted to 3,000 cells/mL of DLD-1 BRCA2−/− and 1,500 cells/mL of DLD-1 in Assay Medium and 100 μL added per well of transparent bottomed, black, tissue culture-treated 96-well plates (CoStar, No. 3904) Assay Ready Plates. The Assay Ready Plates contain a 10 point 10 μM to 0.51 nM dose range with three-fold dilutions in DMSO with a final volume of 100 nL. The plates were incubated at 37° C. with 5% C02 for 6 days. On day 6, 100 μL/well of Assay Medium was added to duplicate Assay Ready Plates. 90 μL of culture medium was removed from the cell plates and replenished with the Assay Media and compounds from the duplicate Assay Ready Plates using the Bravo. The plates were further incubated at 37° C. with 5% CO2. On day 7 the plates containing DLD-1 and Cell Titre Glo 3D (Promega G9683) were equilibrated to room temperature, then 60 μL of Cell Titre Glo 3D was added per well and incubated on a shaking platform for 30 min. Plates were read on the Envision measuring luminescence for 1 second per well. On day 12 the plates containing DLD-1 BRCA2−/− cells and Cell Titre Glo 3D (Promega G9683) were equilibrated to room temperature, then 60 μL Cell Titre Glo 3D added per well and incubated on a shaking platform for 30 min. Plates were read on the Envision measuring luminescence for 1 second per well. The data was exported into a suitable software package (such as Genedata) to perform curve fitting analysis. Inhibition of cell proliferation was expressed as an IC5o value and was determined by calculation of the concentration of compound that was required to give a 50% reduction of the average maximum Total Intensity signal.
# [1] = DLD-1, first proliferation column (c5), DLD-1 BRCA2-/-, read-out: POLQ PD Prolif Lumin (converted)
# [2] = DLD-1, DLD-1 BRCA2-/- proliferation, column head only partly shown, read-out: POLQ PD Prolif Lumin (converted)
# [3] = DLD-1, proliferation, luminescence, taken as DLD-1 BRCA2-/-, read-out: POLQ PD Prolif Lumin (converted)
# [4] = DLD-1, DLD-1 BRCA2 −/−, mean, read-out: POLQ PD Prolif Lumin BRCA2 −/− mean pIC50 (converted)
smiles,measurement,setting,value
"Cc1ccnc(Cn2c(-c3ccc(C4CCNC4=O)cc3Cl)nc3c(OC4(C)CC4)ncnc32)c1 (racemic) [Example T176, 3-(3-chloro-4-(6-(1-methylcyclopropoxy)-9-((4-methylpyridin-2-yl)methyl)-9H-purin-8-yl)phenyl)pyrrolidin-2-one]",IC50,[1],794 nM
"Cc1ccnc(Cn2c(-c3ccc(OC4CCNC4=O)cc3Cl)nc3c(OC4(C)CC4)ncnc32)c1 (racemic) [Example T178, 3-(3-chloro-4-(6-(1-methylcyclopropoxy)-9-((4-methylpyridin-2-yl)methyl)-9H-purin-8-yl)phenoxy)pyrrolidin-2-one]",IC50,[1],501 nM
"CCC(C)c1ccc(-c2nc3c(OC4(C)CC4)ncnc3n2Cc2cc(C)ccn2)c(Cl)c1 (racemic) [Example T232, 8-(4-(sec-butyl)-2-chlorophenyl)-6-(1-methylcyclopropoxy)-9-((4-methylpyridin-2-yl)methyl)-9H-purine]",IC50,[2],> 1580 nM
"CC(CCOc1ccc(-c2nc3c(OC4(C)CC4)ncnc3n2Cc2cccc(Cl)c2F)c(Cl)c1)C(=O)O (racemic) [Example T267, 4-(3-chloro-4-(9-(3-chloro-2-fluorobenzyl)-6-(1-methylcyclopropoxy)-9H-purin-8-yl)phenoxy)-2-methylbutanoic acid]",IC50,[2],398 nM
"CC(CCOc1ccc(-c2nc3c(OC4(C)CC4)ncnc3n2Cc2ccc(F)c(Cl)c2)c(Cl)c1)C(=O)O (racemic) [Example T269, 4-(3-chloro-4-(9-(3-chloro-4-fluorobenzyl)-6-(1-methylcyclopropoxy)-9H-purin-8-yl)phenoxy)-2-methylbutanoic acid]",IC50,[2],1260 nM
"CC(CCc1ccc(-c2nc3c(OC4(C)CC4)ncnc3n2Cc2cccc(Cl)c2)c(Cl)c1)C(=O)O (racemic) [Example T290, 4-(3-chloro-4-(9-(3-chlorobenzyl)-6-(1-methylcyclopropoxy)-9H-purin-8-yl)phenyl)-2-methylbutanoic acid]",IC50,[2],251 nM
"CC(CCOc1ccc(-c2nc3c(OC4(C)CC4)ncnc3n2Cc2cccc(Cl)c2)c(Cl)c1)C(=O)O (racemic) [Example T291, 4-(3-chloro-4-(9-(3-chlorobenzyl)-6-(1-methylcyclopropoxy)-9H-purin-8-yl)phenoxy)-2-methylbutanoic acid]",IC50,[2],158 nM
"Cc1ccnc(Cn2c(-c3ccc(N4CCC(O)CC4=O)cc3Cl)nc3c(OC4(C)CC4)ncnc32)c1 (racemic) [Example T321, 1-(3-chloro-4-(6-(1-methylcyclopropoxy)-9-((4-methylpyridin-2-yl)methyl)-9H-purin-8-yl)phenyl)-4-hydroxypiperidin-2-one]",IC50,"DLD-1, first proliferation column (c5), taken as DLD-1 BRCA2-/-, read-out: POLQ PD Prolif Lumin (converted)",3980 nM
"CC(CCCc1ccc(-c2nc3c(OC4(C)CC4)ncnc3n2Cc2cccc(Cl)c2)c(Cl)c1)C(=O)O (racemic) [Example T434, 5-(3-chloro-4-(9-(3-chlorobenzyl)-6-(1-methylcyclopropoxy)-9H-purin-8-yl)phenyl)-2-methylpentanoic acid]",IC50,[3],158 nM
"CCC(CCOc1ccc(-c2nc3c(OC4(C)CC4)ncnc3n2Cc2cccc(Cl)c2)c(Cl)c1)C(=O)O (racemic) [Example T441, 4-(3-chloro-4-(9-(3-chlorobenzyl)-6-(1-methylcyclopropoxy)-9H-purin-8-yl)phenoxy)-2-ethylbutanoic acid]",IC50,[3],158 nM
"COc1cccc(Cn2c(-c3ccc(OCCC(C)C(=O)O)cc3Cl)nc3c(OC4(C)CC4)ncnc32)c1 (racemic) [Example T454, 4-(3-chloro-4-(9-(3-methoxybenzyl)-6-(1-methylcyclopropoxy)-9H-purin-8-yl)phenoxy)-2-methylbutanoic acid]",IC50,[3],794 nM
"Cc1ccnc(Cn2c(-c3ccc(N4CC5CC4CCN5)cc3Cl)nc3c(OC4(C)CC4)ncnc32)c1 (racemic) [Example T491, 8-(4-(2,6-diazabicyclo[3.2.1]octan-6-yl)-2-chlorophenyl)-6-(1-methylcyclopropoxy)-9-((4-methylpyridin-2-yl)methyl)-9H-purine]",IC50,[1],501 nM
"Cc1ccnc(Cn2c(-c3ccc(N4CCN5CCC4C5)cc3Cl)nc3c(OC4(C)CC4)ncnc32)c1 (racemic) [Example T493, 8-(4-(1,4-diazabicyclo[3.2.1]octan-4-yl)-2-chlorophenyl)-6-(1-methylcyclopropoxy)-9-((4-methylpyridin-2-yl)methyl)-9H-purine]",IC50,[1],251 nM
"Cc1ccc(C)c(Cn2c(-c3ccc(OCCC(C)C(=O)O)cc3Cl)nc3c(OC4(C)CC4)ncnc32)c1 (racemic) [Example T569, 4-(3-chloro-4-(9-(2,5-dimethylbenzyl)-6-(1-methylcyclopropoxy)-9H-purin-8-yl)phenoxy)-2-methylbutanoic acid]",IC50,[1],631 nM
"Cc1cccc(Cn2c(-c3ccc(OCCC(C)C(=O)O)cc3Cl)nc3c(OC4(C)CC4)ncnc32)c1C (racemic) [Example T570, 4-(3-chloro-4-(9-(2,3-dimethylbenzyl)-6-(1-methylcyclopropoxy)-9H-purin-8-yl)phenoxy)-2-methylbutanoic acid]",IC50,[1],398 nM
"CC(CCOc1ccc(-c2nc3c(OC4(C)CC4)ncnc3n2Cc2cccc(C3CC3)c2)c(Cl)c1)C(=O)O (racemic) [Example T601, 4-(3-chloro-4-(9-(3-cyclopropylbenzyl)-6-(1-methylcyclopropoxy)-9H-purin-8-yl)phenoxy)-2-methylbutanoic acid]",IC50,"DLD-1, first proliferation column, DLD-1 BRCA2-/-, read-out: POLQ PD Prolif Lumin (converted)",794 nM
"COc1c(Cl)cccc1Cn1c(-c2ccc(OCCC(C)C(=O)O)cc2Cl)nc2c(OC3(C)CC3)ncnc21 (racemic) [Example U3, 4-(3-chloro-4-(9-(3-chloro-2-methoxybenzyl)-6-(1-methylcyclopropoxy)-9H-purin-8-yl)phenoxy)-2-methylbutanoic acid]",IC50,[4],3980 nM
"COc1ccccc1Cn1c(-c2ccc(OCCC(C)C(=O)O)cc2Cl)nc2c(OC3(C)CC3)ncnc21 (racemic) [Example U4, 4-(3-chloro-4-(9-(2-methoxybenzyl)-6-(1-methylcyclopropoxy)-9H-purin-8-yl)phenoxy)-2-methylbutanoic acid]",IC50,[4],251 nM
"CC(CCOc1ccc(-c2nc3c(OC4(C)CC4)ncnc3n2Cc2ccccc2F)c(Cl)c1)C(=O)O (racemic) [Example U5, 4-(3-chloro-4-(9-(2-fluorobenzyl)-6-(1-methylcyclopropoxy)-9H-purin-8-yl)phenoxy)-2-methylbutanoic acid]",IC50,[4],316 nM
"CC(CCOc1ccc(-c2nc3c(OC4(C)CC4)ncnc3n2Cc2cccc(F)c2)c(Cl)c1)C(=O)O (racemic) [Example U6, 4-(3-chloro-4-(9-(3-fluorobenzyl)-6-(1-methylcyclopropoxy)-9H-purin-8-yl)phenoxy)-2-methylbutanoic acid]",IC50,[4],251 nM
"CC(CCOc1ccc(-c2nc3c(OC4(C)CC4)ncnc3n2Cc2ccc(C#N)cc2)c(Cl)c1)C(=O)O (racemic) [Example U7, 4-(3-chloro-4-(9-(4-cyanobenzyl)-6-(1-methylcyclopropoxy)-9H-purin-8-yl)phenoxy)-2-methylbutanoic acid]",IC50,[4],2510 nM
"CC(CCCc1ccc(-c2nc3c(OC4(C)CC4)ncnc3n2Cc2ccccc2C#N)c(Cl)c1)C(=O)O (racemic) [Example U12, 5-(3-chloro-4-(9-(2-cyanobenzyl)-6-(1-methylcyclopropoxy)-9H-purin-8-yl)phenyl)-2-methylpentanoic acid]",IC50,[4],398 nM
"CC(CCOc1ccc(-c2nc3c(OC4(C)CC4)ncnc3n2Cc2cc(C#N)ccc2F)c(Cl)c1)C(=O)O (racemic) [Example U18, 4-(3-chloro-4-(9-(5-cyano-2-fluorobenzyl)-6-(1-methylcyclopropoxy)-9H-purin-8-yl)phenoxy)-2-methylbutanoic acid]",IC50,[4],398 nM
"CC(COc1ccc(-c2nc3c(OC4(C)CC4)ncnc3n2Cc2ccccc2C#N)c(Cl)c1)CC(=O)O (racemic) [Example U25, 4-(3-chloro-4-(9-(2-cyanobenzyl)-6-(1-methylcyclopropoxy)-9H-purin-8-yl)phenoxy)-3-methylbutanoic acid]",IC50,[4],398 nM
